# From PubChem BioAssay AID1963848 (Molecular Pharmacology Branch, DTP, NCI, 2024)
# Several values for one entry are separate records, joined by “and”; a condition that tells them apart may be missing. Equal entries are not always repeated.
# Test system: 379773-124-R-J2-PDC spheroid viability
# Experiment: Anticancer human tumor 379773-124-R-J2-PDC patient-derived endometrial carcinoma cell line growth inhibition [POLQ]
# Settings: spheroids with HUVEC and MSC; for viability, T/C: stronger effect = lower value
# Description: Multicellular complex tumor spheroid response to Polymerase (POL) inhibitors (novobiocin, ART-558, RP6685) in combination with a variety of drugs and investigational agents in selected tumor cell lines
# The POL inhibitors (novobiocin, ART-558, and RP6685) were evaluated both individually and in combination with standard of care and investigational anticancer small molecules within a complex spheroid model of solid tumors. . Complex spheroids include a stromal component modeled by human endothelial cells (HUVEC) and fibroblasts modeled by human mesenchymal stem cells (MSCs). The concentration ranges selected for each drug and investigational agent were based upon clinically achievable concentrations if the clinical Cmax of the agent was known.
# Compounds. The drugs and investigational agents: novobiocin (NSC847541), ART-558 (NSC835418), RP-6685 (NSC848927), peposertib (NSC802822), ceralasertib (NSC780249), elimusertib (NSC800525), camonsertib (NSC841442), AZD-1390 (NSC803789), olaparib (NSC753686), talazoparib (NSC767125), rucaparib (NSC756644), sotorasib (NSC818433), MRTX-1133 (NSC836407), SN-38 (NSC673596), topotecan (NSC609699), epotoside (NSC141540), doxorubicin (NSC123127), gemcitabine (NSC613327), 5-fluorouracil (NSC19893), paclitaxel (NSC125973), vemurafenib (NSC761431), MSA-2 (NSC828583), SN-011 (NSC837082), adavosertib (NSC754352), prexasertib (NSC758257), carboplatin (NSC241240) and oxaliplatin (NSC266046), were obtained from the National Cancer Institute (NCI) Developmental Therapeutics Program Chemical Repository (21). The FDA-approved anticancer drug set is available from the Developmental Therapeutics Program at https://dtp.cancer.gov/organization/dscb/obtaining/. […] The stock solutions were prepared in dimethyl sulfoxide (DMSO, Sigma-Aldrich, St. Louis, MO, cat. D2650), except for the platinum compounds which were prepared in saline (Quality Biological, Gaithersburg, MD, cat. 114-055-101), at 800-fold the tested concentration and stored at -70 degrees C prior to their use. All drugs and investigational agents were tested over a range starting from a high concentration at or near the clinical Cmax and decreasing in half-log increments. If the clinical Cmax for an agent had not been determined, the highest concentration tested was 10 microM, except for SN-38, which was tested at a high concentration of 1 microM.
# Cell Culture. All cells were maintained in an incubator at 37 degrees C and 5% CO2 with 95% humidity. The PDC lines were cultured according to standard operating procedures established by the NCI PDMR (https://pdmr.cancer.gov). Table 3 of the manuscript, lists the cell lines along with the number of the three cell types plated to form the mct-spheroids and media for tumor cell growth. After thawing, all PDC lines, except 997537-175-T-J1-PDC and 415267-285-R-J2-PDC, were cultured in Matrigel-coated flasks prepared with a working solution of 1X Ham's F-12 nutrient mix, without supplementation (Thermo Fisher Scientific, cat. 11765054), 100 U/mL penicillin-streptomycin (Thermo Fisher Scientific, cat. 15140122), and 2.5% Matrigel (Corning Inc., Corning, NY, cat. 354248) for the first three passages. The two PDC lines 997537-175-T-J1-PDC and 415267-285-R-J2-PDC were cultured on uncoated flasks. The 857933-349-R-J2-PDC line was cultured in 6C/Colon 1B media containing advanced DMEM/F-12 (Thermo Fisher Scientific, cat. 12634028), 10 mM HEPES (Thermo Fisher Scientific, cat. 15630080), 1X GlutaMAX supplement (Thermo Fisher Scientific, cat. 35050061), 0.1 mg/mL primocin (InvivoGen, San Diego, CA, cat. ant-pm-2), 10% defined fetal bovine serum, heat inactivated (HyClone Laboratories Inc., Logan, UT, cat. SH30070.03HI), 50% L-WRN conditioned media (ATCC, cat. CRL-3276), 1.25 mM N-Acetyl-L-cysteine (Sigma-Aldrich, cat. A9165), 10 mM nicotinamide (Sigma-Aldrich, cat. N0636), 1X B-27 supplement (Thermo Fisher Scientific, cat. 17504044), 1X N-2 supplement (Thermo Fisher Scientific, cat. […]
# 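Note: spheroids exposed to drugs for seven days before readout.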
# 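Throughout, for viability, T/C: percent viability relative to DMSO vehicle control taken as 100%.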
structure (smiles),measurement,setting,value
CC(=O)O[C@H]1C(=O)[C@@]2(C)[C@H]([C@H](OC(=O)c3ccccc3)[C@]3(O)C[C@H](OC(=O)[C@H](O)[C@@H](NC(=O)c4ccccc4)c4ccccc4)C(C)=C1C3(C)C)[C@]1(OC(C)=O)CO[C@@H]1C[C@@H]2O + COC1C(OC(N)=O)C(O)C(Oc2ccc3c(O)c(NC(=O)c4ccc(O)c(CC=C(C)C)c4)c(=O)oc3c2C)OC1(C)C,IC50,"curve of first compound, second compound 0.0316 µM",< 9.49 nM
same,IC50,"curve of first compound, second compound 0.1 µM",< 9.49 nM
same,IC50,"curve of first compound, second compound 0.316 µM",< 9.49 nM
same,IC50,"curve of first compound, second compound 1 µM",< 9.49 nM
same,IC50,"curve of first compound, second compound 3.16 µM",< 9.49 nM
same,IC50,"curve of first compound, second compound 10 µM",< 9.49 nM
same,"viability, T/C","second compound 0.0316 µM, first compound 0.00949 µM",19.1%
same,"viability, T/C","second compound 0.0316 µM, first compound 0.03 µM",6.48%
same,"viability, T/C","second compound 0.0316 µM, first compound 0.0949 µM",7.9%
same,"viability, T/C","second compound 0.0316 µM, first compound 0.3 µM",9.31%
same,"viability, T/C","second compound 0.0316 µM, first compound 0.949 µM",7.71%
same,"viability, T/C","second compound 0.0316 µM, first compound 3 µM",5.65%
same,"viability, T/C","second compound 0.1 µM, first compound 0.00949 µM",23.8%
same,"viability, T/C","second compound 0.1 µM, first compound 0.03 µM",7.55%
same,"viability, T/C","second compound 0.1 µM, first compound 0.0949 µM",8.46%
same,"viability, T/C","second compound 0.1 µM, first compound 0.3 µM",7.94%
same,"viability, T/C","second compound 0.1 µM, first compound 0.949 µM",6.43%
same,"viability, T/C","second compound 0.1 µM, first compound 3 µM",6.33%
same,"viability, T/C","second compound 0.316 µM, first compound 0.00949 µM",18.3%
same,"viability, T/C","second compound 0.316 µM, first compound 0.03 µM",8.15%
same,"viability, T/C","second compound 0.316 µM, first compound 0.0949 µM",8.46%
same,"viability, T/C","second compound 0.316 µM, first compound 0.3 µM",9.54%
same,"viability, T/C","second compound 0.316 µM, first compound 0.949 µM",7.17%
same,"viability, T/C","second compound 0.316 µM, first compound 3 µM",6.23%
same,"viability, T/C","second compound 1 µM, first compound 0.00949 µM",24.1%
same,"viability, T/C","second compound 1 µM, first compound 0.03 µM",9.6%
same,"viability, T/C","second compound 1 µM, first compound 0.0949 µM",8.23%
same,"viability, T/C","second compound 1 µM, first compound 0.3 µM",7.23%
same,"viability, T/C","second compound 1 µM, first compound 0.949 µM",8.2%
same,"viability, T/C","second compound 1 µM, first compound 3 µM",6.6%
same,"viability, T/C","second compound 3.16 µM, first compound 0.00949 µM",22%
same,"viability, T/C","second compound 3.16 µM, first compound 0.03 µM",8.1%
same,"viability, T/C","second compound 3.16 µM, first compound 0.0949 µM",9.73%
same,"viability, T/C","second compound 3.16 µM, first compound 0.3 µM",8.26%
same,"viability, T/C","second compound 3.16 µM, first compound 0.949 µM",6.92%
same,"viability, T/C","second compound 3.16 µM, first compound 3 µM",6.09%
same,"viability, T/C","second compound 10 µM, first compound 0.00949 µM",18.3%
same,"viability, T/C","second compound 10 µM, first compound 0.03 µM",7.78%
same,"viability, T/C","second compound 10 µM, first compound 0.0949 µM",7.88%
same,"viability, T/C","second compound 10 µM, first compound 0.3 µM",7.81%
same,"viability, T/C","second compound 10 µM, first compound 0.949 µM",6.9%
same,"viability, T/C","second compound 10 µM, first compound 3 µM",8.24%
CC1COCCN1c1cc(-c2ccnn2C)c2ccnc(-c3ccn[nH]3)c2n1 (stereo unspecified),"viability, T/C",compound 0.0316 µM,75.5% and 78.8% and 88.4%
same,"viability, T/C",compound 0.1 µM,53.1% and 47.6% and 54.7%
same,"viability, T/C",compound 0.316 µM,11.6% and 8.88% and 12.7%
same,"viability, T/C",compound 1 µM,8.44% and 8.27% and 10.5%
same,"viability, T/C",compound 3.16 µM,10.4% and 10.8% and 12.3%
same,"viability, T/C",compound 10 µM,5.02% and 6.19% and 8.08%
same,IC50,curve of compound,109 nM and 91.5 nM and 114 nM
C#Cc1c(F)ccc2cc(O)cc(-c3ncc4c(N5CC6CCC(C5)N6)nc(OCC56CCCN5CC(F)C6)nc4c3F)c12 (stereo unspecified),"viability, T/C",compound 0.0316 µM,89.7% and 98.6% and 95.6%
same,"viability, T/C",compound 0.1 µM,75.8% and 86.8% and 84.9%
same,"viability, T/C",compound 0.316 µM,76.9% and 105% and 79.6%
same,"viability, T/C",compound 1 µM,82.7% and 98.4% and 90.6%
same,"viability, T/C",compound 3.16 µM,87.1% and 98.4% and 87.7%
same,"viability, T/C",compound 10 µM,81.7% and 93% and 90.7%
same,IC50,curve of compound,> 10000 nM
